From patent US11773071B2, “Benzothiazepine compounds and their use as bile acid modulators” (Albireo AB, priority 2019, dated 2023)

Assays:
Human IBAT = target: T1, Human IBAT (Homo sapiens, UniProt Q12908); assay: IBAT (h/m) assay, human IBAT-overexpressing cells, 3H-taurocholic acid uptake; format: cell-based; conditions: 0.25 μM 3H-taurocholic acid and 5 μM cold taurocholic acid, 20 minutes, read-out: hIBAT IC50
T1 construct: expressed in transfected cells; Puromycin-selected
T1 sequence (Q12908 1-348): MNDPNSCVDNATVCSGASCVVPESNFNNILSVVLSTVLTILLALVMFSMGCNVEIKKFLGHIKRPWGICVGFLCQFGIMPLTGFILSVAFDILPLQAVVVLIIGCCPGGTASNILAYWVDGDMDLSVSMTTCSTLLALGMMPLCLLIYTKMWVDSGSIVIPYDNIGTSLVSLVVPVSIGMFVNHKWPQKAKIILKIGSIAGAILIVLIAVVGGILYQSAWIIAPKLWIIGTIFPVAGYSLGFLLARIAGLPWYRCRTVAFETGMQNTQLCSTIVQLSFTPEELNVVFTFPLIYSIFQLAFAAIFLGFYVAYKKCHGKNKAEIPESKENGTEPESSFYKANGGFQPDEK
Method: IBAT (h/m) Assay Protocol
10,000 cells (Human or Mouse IBAT-overexpressing cells) were seeded in 96-wells plate (Corning CLS3809) in 200 μL MEM-alpha medium (Gibco 12571-063) supplemented with 10% FBS (Gibco 10438026) containing Puromycin (Gibco A1113803) (10 μg/mL) and incubated at 37° C. in 5% CO2 for 48 hours. After incubation, media was decanted from the wells and cells were washed two times with 300 μL of basal MEM-alpha medium (FBS-free). After decanting basal MEM-alpha medium each time, plates were tapped against paper towel to ensure maximum removal of residual media. Test inhibitor dilutions (highest test concentration being 10 μM, 3-fold serial dilution, 10 points) prepared in DMSO (Sigma D2650) were added in incubation mix (maintaining 0.2% final DMSO concentration) containing 0.25 μM 3H-taurocholic acid (ARC ART-1368) and 5 μM of cold taurocholic acid (Sigma T4009). 50 μL of incubation mix containing test inhibitors was then added to the wells (in duplicate) and the plates were incubated for 20 minutes in a CO2 incubator at 37° C. After incubation, the reaction was stopped by keeping the plates on ice water mix for 2-3 minutes and then the incubation mix was aspirated completely from the wells. The wells were washed two times with 250 μL of chilled unlabelled 1 mM taurocholic acid dissolved in HEPES (Gibco 15630080)-buffered (10 mM) HBSS (Gibco 14175079) (pH 7.4). The plates were tapped against a paper towel after every wash to ensure maximum removal of blocking buffer.
100 μL of MicroScint-20 (PerkinElmer 6013621) was added to the wells and kept overnight at room temperature before reading the plates in TopCount NXT™ Microplate Scintillation and Luminescence Counter from PerkinElmer under 3H Test protocol (set at 120 seconds reading time per well).
(§1) Preparation of Test Compound Dilutions
(§2) All test compounds were provided in powder form at room temperature. 10 mM DMSO stocks of the test compounds were prepared, aliquoted and stored at −20° C. From the 10 mM DMSO stock of the compounds, a 3-fold serial dilution in DMSO was prepared to get a total of 10 dilutions of the test compounds. 0.5 μL of this dilution in DMSO was added to 250 μL of FBS-free basal media containing 3H-taurocholic acid and cold taurocholic acid to prepare the incubation mixture.

Human LBAT = target: T2, Human LBAT (Homo sapiens, UniProt Q14973); assay: LBAT (h/m) assay, human LBAT-overexpressing cells, 3H-taurocholic acid uptake; format: cell-based; conditions: 0.3 μM 3H-taurocholic acid and 7.5 μM cold taurocholic acid, 20 minutes, read-out: hLBAT IC50
T2 construct: expressed in transfected cells; Geneticin-selected
T2 sequence (Q14973 1-349): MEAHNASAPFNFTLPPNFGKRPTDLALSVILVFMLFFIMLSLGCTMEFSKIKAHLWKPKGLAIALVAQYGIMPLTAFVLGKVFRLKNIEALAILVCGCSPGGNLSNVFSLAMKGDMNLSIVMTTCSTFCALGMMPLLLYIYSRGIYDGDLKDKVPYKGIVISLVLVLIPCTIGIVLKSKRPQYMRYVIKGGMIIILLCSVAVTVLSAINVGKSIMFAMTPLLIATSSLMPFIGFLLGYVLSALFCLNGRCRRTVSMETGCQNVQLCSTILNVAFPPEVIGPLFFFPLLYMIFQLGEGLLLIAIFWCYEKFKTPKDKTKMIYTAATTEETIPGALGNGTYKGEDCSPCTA
Method: LBAT (h/m) Assay Protocol
20,000 cells (Human or Mouse LBAT-overexpressing cells) were seeded in 96-wells plate (Corning CLS3809) in 100 μL MEM-alpha medium (Gibco 12571-063) supplemented with 10% FBS (Gibco 10438026) containing Geneticin (Gibco 10131-027) (1 mg/mL) and incubated at 37° C. in 5% CO2 for 24 hours. After incubation, media was decanted from the wells and cells were washed two times with 300 μL of basal MEM-alpha medium (FBS-free). After decanting basal MEM-alpha medium each time, plates were tapped against paper towel to ensure maximum removal of residual media.
For human LBAT, incubation mix was prepared by adding test inhibitor dilutions (3-fold serial dilution in DMSO (Sigma D2650), 10 points) in MEM-alpha (without FBS) containing 0.3 μM 3H-taurocholic acid (ARC ART-1368) and 7.5 μM cold taurocholic acid (Sigma T4009) (maintaining 0.2% final DMSO concentration). For mouse LBAT, incubation mix was prepared by adding test inhibitor dilutions (3-fold serial dilution in DMSO, 10 points) in MEM-alpha (without FBS) containing 0.3 μM 3H-taurocholic acid and 25 μM cold taurocholic acid maintaining 0.2% final DMSO concentration). 50 μL of incubation mix containing test inhibitors was then added to the wells (in duplicate) and the plates were incubated for 20 minutes in a CO2 incubator at 37° C. After incubation, the reaction was stopped by keeping the plates on ice water mix for 2-3 minutes and then the incubation mix was aspirated completely from the wells. The wells were washed two times with 250 μL of chilled unlabelled 1 mM taurocholic acid dissolved in HEPES (Gibco 15630080)-buffered (10 mM) HBSS (Gibco 14175079) (pH 7.4). The plates were tapped against a paper towel after every wash to ensure maximum removal of blocking buffer. 100 μL of MicroScint-20 (PerkinElmer 6013621) was added to the wells and kept overnight at room temperature before reading the plates in TopCount NXT™ Microplate Scintillation and Luminescence Counter from PerkinElmer under 3H Test protocol (set at 120 seconds reading time per well, with normal plate orientation).
as §1, §2

Row | Compound | IC50 (Human IBAT) [nM] | IC50 (Human LBAT) [nM]
1 | CCCCC1(CCCC)CN(c2ccccc2)c2cc(SC)c(OCC(OC)C(=O)O)cc2S(=O)(=O)C1 (racemic) [Example 46, 3-((3,3-Dibutyl-7-(methylthio)-1,1-dioxido-5-phenyl-2,3,4,5-tetrahydro-1,5-benzothiazepin-8-yl)oxy)-2-methoxypropanoic acid] | 26 | 1480
2 | CCCCC1(CC)CN(c2ccc(F)cc2)c2cc(SC)c(OCC(O)C(=O)O)cc2S(=O)(=O)C1 (single isomer, unassigned) [42, diastereomer 4] | 1 | 689
3 | CCCCC1(CCCC)CN(c2ccccc2)c2cc(SC)c(OCC(C)(O)C(=O)O)cc2S(=O)(=O)C1 (single isomer, unassigned) [Example 20, 3-((3,3-dibutyl-7-(methylthio)-1,1-dioxido-5-phenyl-2,3,4,5-tetrahydro-1,5-benzothiazepin-8-yl)oxy)-2-hydroxy-2-methylpropanoic acid] | 42 | 1390
4 | CCCCC1(CC)CN(c2ccccc2)c2cc(Cl)c(OC(C)CC(=O)O)cc2S(=O)(=O)C1 (single isomer, unassigned) [30, diastereomers 1 and 2] | 36 | 247
5 | CCCCC1(CC)CN(c2ccccc2)c2cc(Cl)c(OC(C)CC(=O)O)cc2S(=O)(=O)C1 (single isomer, unassigned) [30, diastereomer 2] | 52 | 322
6 | CCCCC1(CC)CN(c2ccc(F)cc2)c2cc(SC)c(OCC(O)C(=O)O)cc2S(=O)(=O)C1 (single isomer, unassigned) [42, diastereomer 3] | 0.5 | 892
7 | CCCCC1(CCCC)CN(c2ccccc2)c2cc(SC)c(OCC(C)(O)C(=O)O)cc2S(=O)(=O)C1 (single isomer, unassigned) [Example 21, 3-((3,3-dibutyl-7-(methylthio)-1,1-dioxido-5-phenyl-2,3,4,5-tetrahydro-1,5-benzothiazepin-8-yl)oxy)-2-hydroxy-2-methylpropanoic acid] | 19 | 608
8 | CCCCC1(CCCC)CN(c2ccccc2)c2cc(SC)c(OCC(C)(O)C(=O)O)cc2S(=O)(=O)C1 (racemic) [Example 19, 3-((3,3-Dibutyl-7-(methylthio)-1,1-dioxido-5-phenyl-2,3,4,5-tetrahydro-1,5-benzothiazepin-8-yl)oxy)-2-hydroxy-2-methylpropanoic acid] | 39 | 601
9 | CCCCC1(CC)CN(c2ccccc2)c2cc(SC)c(OCCC(=O)O)cc2S(=O)(=O)C1 (single isomer, unassigned) [Example 14, 3-((3-butyl-3-ethyl-7-(methylthio)-1,1-dioxido-5-phenyl-2,3,4,5-tetrahydro-1,5-benzothiazepin-8-yl)oxy)propanoic acid] | 58 | 764
10 | CCCCC1(CC)CN(c2ccccc2)c2cc(Cl)c(OCCC(=O)O)cc2S(=O)(=O)C1 (single isomer, unassigned) [Example 7, 3-((3-butyl-7-chloro-3-ethyl-1,1-dioxido-5-phenyl-2,3,4,5-tetrahydro-1,5-benzothiazepin-8-yl)oxy)propanoic acid] | 418 | 969

More lines, in order of falling IC50 (Human IBAT), values ahead:

Row | IC50 (Human IBAT) [nM] | IC50 (Human LBAT) [nM] | Compound
11 | 241 | 837 | CCCCC1(CC)CN(c2ccccc2)c2cc(Br)c(OCCC(=O)O)cc2S(=O)(=O)C1 (single isomer, unassigned) [Example 3, 3-((7-bromo-3-butyl-3-ethyl-1,1-dioxido-5-phenyl-2,3,4,5-tetrahydro-1,5-benzothiazepin-8-yl)oxy)propanoic acid]
12 | 241 | 1370 | CCCCC1(CC)CN(c2ccccc2)c2cc(SC)c(OCC(O)C(=O)O)cc2S(=O)(=O)C1 (single isomer, unassigned) [40, diastereomer 1]
13 | 57 | 3310 | CCCCC1(C)CN(c2ccccc2)c2cc(N(C)C)c(OCCC(=O)O)cc2S(=O)(=O)C1 (single isomer, unassigned) [29, enantiomer 2]
14 | 46 | > 20000 | CCCCC1(CC)CN(c2ccccc2)c2cc(OC)c(OCCC(=O)O)cc2S(=O)(=O)C1 (single isomer, unassigned) [44, enantiomer 1]
15 | 44 | > 20000 | CCCCC1(CC)CN(c2ccccc2)c2cc(OC)c(OCCC(=O)O)cc2S(=O)(=O)C1 (racemic) [Example 43, 3-((3-butyl-3-ethyl-7-methoxy-1,1-dioxido-5-phenyl-2,3,4,5-tetrahydro-1,5-benzothiazepin-8-yl)oxy)propanoic acid]
16 | 35 | 4080 | CCCCC1(C)CN(c2ccccc2)c2cc(SC)c(OCC(O)C(=O)O)cc2S(=O)(=O)C1 (single isomer, unassigned) [32, diastereomer 2]
17 | 24 | 513 | CCCCC1(CC)CN(c2ccccc2)c2cc(SC)c(OCC(O)C(=O)O)cc2S(=O)(=O)C1 (single isomer, unassigned) [40, diastereomer 2]
18 | 11 | > 6670 | CCCCC1(CCCC)CN(c2ccccc2)c2cc(OC)c(OCCC(=O)O)cc2S(=O)(=O)C1 [Example 45, 3-((3,3-Dibutyl-7-methoxy-1,1-dioxido-5-phenyl-2,3,4,5-tetrahydro-1,5-benzothiazepin-8-yl)oxy)propanoic acid]
19 | 10 | 1540 | CCCCC1(CCCC)CN(c2ccc(F)cc2)c2cc(SC)c(OCCC(=O)O)cc2S(=O)(=O)C1 [Example 26, 3-((3,3-dibutyl-5-(4-fluorophenyl)-7-(methylthio)-1,1-dioxido-2,3,4,5-tetrahydro-1,5-benzothiazepin-8-yl)oxy)propanoic acid]
20 | 3 | 495 | CCCCC1(CC)CN(c2ccc(F)cc2)c2cc(SC)c(OCC(O)C(=O)O)cc2S(=O)(=O)C1 (stereo not shown) [Example 41, 3-((3-Butyl-3-ethyl-5-(4-fluorophenyl)-7-(methylthio)-1,1-dioxido-2,3,4,5-tetrahydro-1,5-benzothiazepin-8-yl)oxy)-2-hydroxypropanoic acid]
